Measurements reported in US5364854A, “Derivatives of substituted imidazo benzoxazin-1-one and process for their preparation” (Farmitalia Carlo Erba S.r.l., priority 1992, dated 1994).
pKi: −log10 of the molar value. Structures can show the parent of a compound that is named as a salt.

Columns and labels:
[1] = target: T1, 5HT3 receptor (Rattus norvegicus, UniProt P35563); assay: 5-HT3 binding affinity in rat entorhinal cortex using ^3 H-BRL 43694 (Granisetron); set-up: labelled in the entorhinal cortex of the rat brain; from tissue; host or cells: rat entorhinal cortex
T1 sequence (P35563 24-483): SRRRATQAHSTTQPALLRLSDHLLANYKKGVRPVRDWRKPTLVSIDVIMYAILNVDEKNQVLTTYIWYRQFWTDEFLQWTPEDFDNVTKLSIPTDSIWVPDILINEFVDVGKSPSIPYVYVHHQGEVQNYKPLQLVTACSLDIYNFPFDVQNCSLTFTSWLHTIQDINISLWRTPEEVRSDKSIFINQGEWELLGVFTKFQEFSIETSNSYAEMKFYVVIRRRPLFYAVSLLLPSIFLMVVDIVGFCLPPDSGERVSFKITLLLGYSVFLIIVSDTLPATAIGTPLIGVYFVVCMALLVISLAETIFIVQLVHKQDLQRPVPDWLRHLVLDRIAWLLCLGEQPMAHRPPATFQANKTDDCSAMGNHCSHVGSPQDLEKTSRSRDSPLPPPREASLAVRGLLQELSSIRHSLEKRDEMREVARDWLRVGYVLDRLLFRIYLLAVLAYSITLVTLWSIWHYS
Method: The affinity for serotonin 5-HT3 receptor was also assessed for instance in rat entorhinal cortex using the selective radioligand ^3 H-[…] as described by Nelson and Thomas (1989).
Nelson D. R. and Thomas D. R., [^3 H]-BRL 43694 (Granisetron), a specific ligand for 5-HT3 binding sites in rat brain cortical membranes Biochem. Pharmac. 38, 1693-1695, 1989.
The following Table III summarizes the data obtained in this in vitro test for a representative group of compounds of the invention in comparison with the known reference compounds MDL 72222 and Metoclopramide.
5-HT3 binding affinity ^b) for rat entorhinal cortex.
^(b) ^3 […] labelled 5HT3 sites

[2] = target: T1, 5HT3 receptor; assay: Inhibition of the binding of ^3 H-GR65630 to 5-HT3 sites in rat entorhinal cortex; set-up: labelled in the entorhinal cortex of the rat brain; from tissue; host or cells: rat entorhinal cortex
Text: (§1) The following Table II reports the data obtained in this in vitro test for a representative group of compounds of the invention in comparison with the known reference compounds MDL 72222 and Metoclopramide.
(§2) 5-HT3 binding affinity ^(a) for rat entorhinal cortex
(§3) ^(a) [^3 HGR 65630 labelled 5HT3 sites.
(§4) The tested compounds were able to interact with 5-HT3 -serotonin receptors labelled in the entorhinal cortex of the rat brain with ^3 H-GR 65630.

[3] = target: 5-HT3 receptor; assay: as above; details: ^3 H-GR 65630, rat entorhinal cortex, low (affinity site), two-site fit
Text: as §1, §2, §3, §4

[4] = target: T1, 5HT3 receptor; assay: Inhibition of the von Bezold-Jarisch chemoreflex evoked by 5-HT (20 μg/kg i.v.) in the anesthetised rat (in vivo 5HT3 antagonist activity); set-up: chemoreflex evoked by 5-HT in the anesthetised rat; from tissue; host or cells: anaesthetised rat in vivo (own knowledge: 5-HT3 receptors on cardiac vagal afferents); details: anesthetized rat; for % Inhibition: mean ± S.E.M.; for ED50: iv, limits in parentheses on the following line
Method: Pharmacol. 326, 36-44 (1984).
The following Table I reports the in vivo 5HT3 antagonist activity data obtained in this test for the representative compounds of the invention 2,3,3a,4-tetrahydro-2-(1-azabicyclo [2.2.2]oct-3-yl)-8-chloro-1H-imidazo[5,1-c][1,4]benzoxazin-1-one hydrochloride (internal code FCE 26781);
Inhibition of the Bezold-Jarisch reflex elicited by 5-HT (20
μg/kg i.v.) by i.v. FCE compounds in the anesthetized rat.
Values are mean ± S.E.M. from N animals

[5] = ^3 H-GR 65630, rat entorhinal cortex, high (affinity site), only Ki where one-site fit, read-out: Ki high
[6] = ^3 H-BRL 43694 labelled 5HT3 sites, rat entorhinal cortex, read-out: Ki

Cl.O=C1N(C2CN3CCC2CC3)CC2COc3ccc(Cl)cc3N12 (stereo not shown) [FCE 26781, 2,3,3a,4-tetrahydro-2-(1-azabicyclo [2.2.2]oct-3-yl)-8-chloro-1H-imidazo[5,1-c][1,4]benzoxazin-1-one hydrochloride]
pKi [1]: 7.89 | pKi [2]: 8.58 | pKi [3]: 5.72 | % Inhibition ([4]; 50 μg/kg i.v., N=6): 29.50 ± 6.34% | % Inhibition ([4]; 150 μg/kg i.v., N=6): 50.38 ± 5.45% | % Inhibition ([4]; 450 μg/kg i.v., N=6): 90.38 ± 2.80% | ED50 [4]: 0.112 mg/kg

CN1C2CCC1CC(N1CC3COc4ccc(Cl)cc4N3C1=O)C2 (stereo not drawn) [FCE 26783, (endo)-2,3,3a,4-tetrahydro-8-chloro-2-(8-methyl-8-azabicyclo [3.2.1]oct-3-yl)-1H-imidazo[5,1-c][1,4]benzoxazin-1-one hydrochloride]
pKi [1]: 7.52 | pKi [2, 5]: 6.40 | % Inhibition ([4]; 100 μg/kg i.v., N=3-7): 30.9 ± 6.0%

CN1C2CCCC1CC(N1CC3COc4ccc(Cl)cc4N3C1=O)C2 (stereo not drawn) [FCE 26785, (endo)-2,3,3a,4-tetrahydro-8-chloro-2-(9-methyl-9-azabicyclo[3.3.1]non-3-yl)-1H-imidazo[5,1-c][1,4]benzoxazin-1-one hydrochloride]
pKi [1, 6]: 6.51 | pKi [2]: 8.01 | pKi [3]: 6.22

CN1C2CCC1CC(N1CC3COc4ccccc4N3C1=O)C2 (stereo not drawn) [FCE 26878, (endo)-2,3,3a,4-tetrahydro-2-(8-methyl-8-azabicyclo[3.2.1]oct-3-yl)-1H-imidazo[5,1-c][1,4]benzoxazin-1-one, hydrochloride]
pKi [1]: 8.05 | pKi [2]: 7.15 | % Inhibition ([4]; 100 μg/kg i.v., N=3-7): 85.8 ± 1.7% | ED50 [4]: 0.0138 mg/kg

Cl.O=C1N(C2CN3CCC2CC3)CC2COc3ccccc3N12 (stereo not shown) [FCE 26962, 2,3,3a,4-tetrahydro-2-(1-azabicyclo[2.2.2]oct-3-yl)-1H-imidazo [5,1-c][1,4]benzoxazin-1-one hydrochloride]
pKi [1]: 9.40 | pKi [2]: 8.01 | pKi [3]: 4.85 | % Inhibition ([4]; 100 μg/kg i.v., N=3-7): 86.4 ± 1.8% | ED50 [4]: 0.0263 mg/kg

CN1C2CCCC1CC(N1CC3COc4ccccc4N3C1=O)C2 (stereo not drawn) [FCE 26963, (endo)-2,3,3a,4-tetrahydro-2-(9-methyl-9-azabicyclo[3.3.1]non-3-yl)-1H-imidazo[5,1-c][1,4]benzoxazin-1-one hydrochloride]
pKi [1, 6]: 6.77 | pKi [2, 5]: 6.82 | pKi [3]: 4.14 | % Inhibition ([4]; 100 μg/kg i.v., N=3-7): 27.1 ± 10.7%

CN1C2CCC1CC(OC(=O)c1cc(Cl)cc(Cl)c1)C2 (stereo not shown) [MDL 72222, reference compound]
pKi [1]: 7.64

CCN(CC)CCNC(=O)c1cc(Cl)c(N)cc1OC [Metoclopramide, reference compound]
pKi [1]: 6.31
